From US12245998B2 (NACUITY PHARMACEUTICALS, INC., priority 2019, dated 2025)

Assays:
[1] = Rheology (elasticity, viscosity) of concentrated HBE airway mucus, cone-and-plate rheometer; design: species or system human; conditions: for elasticity compared with the DTT group / viscosity compared with the DTT group: 200 mM NACA and NAC versus 20 mM DTT, all p<0.05
Procedure: In the Example 1, the inventors assessed the ability of NACA to reduce the rheological properties of a concentrated (cystic fibrosis-like) mucus, making it more flowable. In this phase, NACA was compared to both a classical clinical reducing agent (N-acetylcysteine; NAC) as well as a potent laboratory reducing agent (Dithiothreitol; DTT). The studies in this phase of the project were performed at a single dose, 200 mM for the mono-thiols NACA and NAC and 20 mM for the di-thiol DTT. Methods. In this study, a single preparation of human bronchial epithelial (HBE) airway mucus at 5.4% solids (i.e., wet-to-dry ratio) was utilized as the test mucus sample. This sample was thawed on ice and split into 4 separate groups. The appropriate amount of test agent (see above) was added to each mucus sample: (1) PBS (vehicle control), (2) NACA, (3) NAC, and (4) DTT. Samples were incubated for 60 minutes at 37ÀöC prior to analysis. Note, the final mucus concentration of each sample (after test agent addition) was ˜4.9% solids. The viscoelastic (i.e., rheological) properties of each mucus preparation was made using a cone-and-plate rheometer (DH3; TA Instruments). For each study, 100 ? of sample was loaded onto the rheometer. Stress controlled sweeps (for viscous and elastic modulus determination) were performed over frequencies from 10-2-102 Hz. To assess yield stress, creep-recovery studies were performed at stresses from 0.05 to 1.5 Pa. Next, the cohesive stress of each sample (i.e., how much force it takes to tear the mucus) was obtained using a peel tester (see Button et. al, PNAS 2018). Studies here were performed at a peel rate of 1 mm/sec.

[2] = Cohesive strength of HBE airway mucus, peel tester; design: species or system human; conditions: 200 mM NACA and NAC, 20 mM DTT
Procedure: In the Example 1, the inventors assessed the ability of NACA to reduce the rheological properties of a concentrated (cystic fibrosis-like) mucus, making it more flowable. In this phase, NACA was compared to both a classical clinical reducing agent (N-acetylcysteine; NAC) as well as a potent laboratory reducing agent (Dithiothreitol; DTT). The studies in this phase of the project were performed at a single dose, 200 mM for the mono-thiols NACA and NAC and 20 mM for the di-thiol DTT.
Methods. In this study, a single preparation of human bronchial epithelial (HBE) airway mucus at 5.4% solids (i.e., wet-to-dry ratio) was utilized as the test mucus sample. This sample was thawed on ice and split into 4 separate groups. The appropriate amount of test agent (see above) was added to each mucus sample: (1) PBS (vehicle control), (2) NACA, (3) NAC, and (4) DTT. Samples were incubated for 60 minutes at 37ÀöC prior to analysis. Note, the final mucus concentration of each sample (after test agent addition) was ˜4.9% solids.
The viscoelastic (i.e., rheological) properties of each mucus preparation was made using a cone-and-plate rheometer (DH3; TA Instruments). For each study, 100 ? of sample was loaded onto the rheometer. Stress controlled sweeps (for viscous and elastic modulus determination) were performed over frequencies from 10-2-102 Hz. […]

[3] = target: T1, glutamate cysteine ligase (GCL, EC 6.3.2.2) (Homo sapiens, UniProt P48506); conditions: read-out: Km of GCL for substrate; cited from earlier work
T1 sequence (P48506 1-637): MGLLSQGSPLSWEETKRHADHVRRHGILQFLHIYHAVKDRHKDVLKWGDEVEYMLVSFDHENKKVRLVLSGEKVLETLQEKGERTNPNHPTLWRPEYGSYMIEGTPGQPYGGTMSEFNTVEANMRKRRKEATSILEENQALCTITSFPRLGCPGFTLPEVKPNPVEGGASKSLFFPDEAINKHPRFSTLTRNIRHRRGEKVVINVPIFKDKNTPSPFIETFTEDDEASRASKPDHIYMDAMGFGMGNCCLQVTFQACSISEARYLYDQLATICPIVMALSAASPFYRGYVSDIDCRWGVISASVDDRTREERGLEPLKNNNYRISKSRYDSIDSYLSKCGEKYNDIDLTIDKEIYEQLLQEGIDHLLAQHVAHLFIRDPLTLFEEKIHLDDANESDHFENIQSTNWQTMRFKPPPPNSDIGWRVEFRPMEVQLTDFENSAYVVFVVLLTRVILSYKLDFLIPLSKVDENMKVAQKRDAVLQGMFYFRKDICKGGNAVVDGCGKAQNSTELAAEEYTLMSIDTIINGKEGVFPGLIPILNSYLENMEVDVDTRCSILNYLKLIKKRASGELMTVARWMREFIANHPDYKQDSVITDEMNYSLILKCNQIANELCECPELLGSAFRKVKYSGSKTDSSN
T1 sequence (P48507 1-274 partner): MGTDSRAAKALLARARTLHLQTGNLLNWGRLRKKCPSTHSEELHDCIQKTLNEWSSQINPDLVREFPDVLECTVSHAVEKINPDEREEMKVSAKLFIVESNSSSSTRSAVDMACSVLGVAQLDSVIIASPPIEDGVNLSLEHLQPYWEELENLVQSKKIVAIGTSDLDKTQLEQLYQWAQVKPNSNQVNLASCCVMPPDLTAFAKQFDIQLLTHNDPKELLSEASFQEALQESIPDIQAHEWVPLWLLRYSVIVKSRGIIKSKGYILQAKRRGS

mucins = conditions: 20 mM; cited from earlier work
[4] = humans, oral dose of 600 mg; cited from earlier work
[5] = normal airway surface, pH of 7.0-7.2; cited from earlier work
[6] = maximum tolerated doses (20%); cited from earlier work
[7] = oral, treatment periods of approximately 12-24 weeks, patients with chronic bronchitis; cited from earlier work
[8] = while intubated; cited from earlier work
[9] = cited from earlier work
WT mice = conditions: mouse, in vivo; cited from earlier work

In the case of `CC(=O)N[C@@H](CS)C(N)=O`, the “elasticity compared with the DTT group” value [1] is reported as “significantly less than the DTT group”, the “viscosity compared with the DTT group” value [1] is reported as “significantly less than the DTT group” and the “elasticity and viscosity, NACA compared with NAC” value ([1]; 200 mM dose) is reported as “no significant difference”. For the same molecule, the “reducing the viscoelasticity of mucus” value ([1]; 200 mM dose) was “very effective” and the “reduction of cohesive strength of mucus” value ([2]; peel rate 1 mm/sec) was “very effective”.

In the case of `N[C@@H](CS)C(=O)O` [cysteine, L-cysteine], the Km [3] is listed as 100 to 300 µM.

In the case of `O[C@H](CS)[C@H](O)CS` (racemic) [DTT, Dithiothreitol], the “cohesive strength, comparison between test agents” value [2] is listed as “slightly better than NAC and NACA” and the reduction of mucins (mucins) is listed as “fully reduce mucins”.

In the case of `CC(=O)N[C@@H](CS)C(=O)O` [NAC, N-acetyl-L-cysteine], the “elasticity compared with the DTT group” value [1] is given as “significantly less than the DTT group”, the “viscosity compared with the DTT group” value [1] is given as “significantly less than the DTT group” and the “time after administration at which no NAC is detectable” value [4] is given as 10 to 12 h. The “fraction in the inactive protonated form” value [5] was 99%, the “mucus reduction in CF subjects” value [6] was “did not produce mucus reduction” and the “risk of adverse effects compared with placebo” value [7] was “without increasing the risk of adverse effects”. For the same molecule, the “risk of exacerbations compared with placebo” value [7] was “reduces the risk of exacerbations”, the “symptoms compared with placebo” value [7] was “improves symptoms” and the “efficacy for atelectasis/mucus plugging” value [8] was “ineffective”. For the same molecule, the “removal of mucus plugs” value ([9]; high concentrations, delivered topically via bronchoscopy, subjects with CF or tracheostomies) was “could remove mucus plugs”, the “lung function following inhalation treatment” value ([9]; inhalation, high NAC concentrations (20%, 1,200 mOsm) aerosolized) was “modest improvements in lung function” and the “airway toxicity in WT mice” value (WT mice) was “induced epithelial cell damage and acute neutrophilic responses”.

B1: Dornasealfa: mucoactive agent reviewed for adults with acute lung conditions (protein, UniProt P24855 23-282, looked up)
Deoxyribonuclease-1: LKIAAFNIQTFGETKMSNATLVSYIVQILSRYDIALVQEVRDSHLTAVGKLLDNLNQDAPDTYHYVVSEPLGRNSYKERYLFVYRPDQVSAVDSYYYDDGCEPCGNDTFNREPAIVRFFSRFTEVREFAIVPLHAAPGDAVAEIDALYDVYLDVQEKWGLEDVMLMGDFNAGCSYVRPSQWSSIRLWTSPTFQWLIPDSADTTATPTHCAYDRIVVAGMLLRGAVVPDSALPFNFQAAYGLSDQLAQAISDHYPVEVMLK
In the case of B1, the “efficacy for atelectasis/mucus plugging” value [8] is given as “ineffective”.
